The source made the active and inactive calls. The rule behind the calls is not given here.
Tested on: CCRIS mutagenicity, Ames/micronucleus/aberration tests
Test: CCRIS mutagenicity studies
[1] = Test System: AMES SALMONELLA TYPHIMURIUM, Strain/Indicator: TA98, Metabolic Activation: HAMSTER, LIVER, S-9, AROCLOR 1254 (10%), Method: PREINCUBATION
[2] = Test System: AMES SALMONELLA TYPHIMURIUM, Strain/Indicator: TA98, Metabolic Activation: NONE, Method: PREINCUBATION
[3] = Test System: AMES SALMONELLA TYPHIMURIUM, Strain/Indicator: TA98, Metabolic Activation: RAT, LIVER, S-9, AROCLOR 1254 (10%), Method: PREINCUBATION
[4] = Test System: AMES SALMONELLA TYPHIMURIUM, Strain/Indicator: TA100, Metabolic Activation: HAMSTER, LIVER, S-9, AROCLOR 1254 (10%), Method: PREINCUBATION
[5] = Test System: AMES SALMONELLA TYPHIMURIUM, Strain/Indicator: TA100, Metabolic Activation: NONE, Method: PREINCUBATION
[6] = Test System: AMES SALMONELLA TYPHIMURIUM, Strain/Indicator: TA100, Metabolic Activation: RAT, LIVER, S-9, AROCLOR 1254 (10%), Method: PREINCUBATION
[7] = Test System: AMES SALMONELLA TYPHIMURIUM, Strain/Indicator: TA1535, Metabolic Activation: HAMSTER, LIVER, S-9, AROCLOR 1254 (10%), Method: PREINCUBATION
[8] = Test System: AMES SALMONELLA TYPHIMURIUM, Strain/Indicator: TA1535, Metabolic Activation: NONE, Method: PREINCUBATION
[9] = Test System: AMES SALMONELLA TYPHIMURIUM, Strain/Indicator: TA1535, Metabolic Activation: RAT, LIVER, S-9, AROCLOR 1254 (10%), Method: PREINCUBATION
[10] = Test System: AMES SALMONELLA TYPHIMURIUM, Strain/Indicator: TA1537, Metabolic Activation: HAMSTER, LIVER, S-9, AROCLOR 1254 (10%), Method: PREINCUBATION
[11] = Test System: AMES SALMONELLA TYPHIMURIUM, Strain/Indicator: TA1537, Metabolic Activation: NONE, Method: PREINCUBATION
[12] = Test System: AMES SALMONELLA TYPHIMURIUM, Strain/Indicator: TA1537, Metabolic Activation: RAT, LIVER, S-9, AROCLOR 1254 (10%), Method: PREINCUBATION
[13] = Test System: AMES SALMONELLA TYPHIMURIUM, Strain/Indicator: TA98, Metabolic Activation: NONE, Method: STANDARD PLATE
[14] = Test System: AMES SALMONELLA TYPHIMURIUM, Strain/Indicator: TA98, Metabolic Activation: RAT, LIVER, S-9, AROCLOR 1254, Method: PREINCUBATION
[15] = Test System: AMES SALMONELLA TYPHIMURIUM, Strain/Indicator: TA100, Metabolic Activation: NONE, Method: STANDARD PLATE
[16] = Test System: AMES SALMONELLA TYPHIMURIUM, Strain/Indicator: TA100, Metabolic Activation: RAT, LIVER, S-9, AROCLOR 1254, Method: PREINCUBATION
[17] = Test System: AMES SALMONELLA TYPHIMURIUM, Strain/Indicator: TA100, Metabolic Activation: RAT, LIVER, S-9, AROCLOR 1254, Method: STANDARD PLATE
[18] = Test System: AMES SALMONELLA TYPHIMURIUM, Strain/Indicator: TA100, Metabolic Activation: S-9, Method: STANDARD PLATE

Measured: mutagenic call

COc1ccc(CN(CCN(C)C)c2ncccn2)cc1
inactive: [1] inactive; negative | [2] inactive; negative | [3] inactive; negative | [4] inactive; negative | [5] inactive; negative | [6] inactive; negative | [7] inactive; negative | [8] inactive; negative | [9] inactive; negative | [10] inactive; negative | [11] inactive; negative | [12] inactive; negative

O=NN1CCSC1C(O)C(O)C(O)C(O)CO (stereo unspecified)
active: [5] active; positive | [15] active; positive | [16] active; positive | [17] active; positive
inactive: [2] inactive; negative | [13] inactive; negative | [14] inactive; negative | Test System: AMES SALMONELLA TYPHIMURIUM, Strain/Indicator: TA98, Metabolic Activation: RAT, LIVER, S-9, AROCLOR 1254, Method: STANDARD PLATE inactive; negative

CNc1ccc(C(=C2C=CC(=[N+](C)C)C=C2)c2ccc(N(C)C)cc2)cc1
active: Test System: AMES SALMONELLA TYPHIMURIUM, Strain/Indicator: TA100, Method: PREINCUBATION active; positive

Nc1ccc2c3c(cccc13)-c1ccccc1-2
active: Test System: AMES SALMONELLA TYPHIMURIUM, Strain/Indicator: TA98, Metabolic Activation: RAT, LIVER, S-9, AROCLOR 1254 (2 OR 4%), Method: STANDARD PLATE active; positive | Test System: AMES SALMONELLA TYPHIMURIUM, Strain/Indicator: TA100, Metabolic Activation: RAT, LIVER, S-9, AROCLOR 1254 (4%), Method: STANDARD PLATE active; positive | Test System: AMES SALMONELLA TYPHIMURIUM, Strain/Indicator: TA1537, Metabolic Activation: RAT, LIVER, S-9, AROCLOR 1254 (4%), Method: STANDARD PLATE active; positive
inactive: Test System: AMES SALMONELLA TYPHIMURIUM, Strain/Indicator: TA1535, Metabolic Activation: RAT, LIVER, S-9, AROCLOR 1254 (4%), Method: STANDARD PLATE inactive; negative

N#CCBr
active: Test System: AMES SALMONELLA TYPHIMURIUM, Strain/Indicator: TA100, Metabolic Activation: RAT, LIVER, S-9, AROCLOR 1254, Method: FLUCTUATION TEST active; positive
inactive: [1] inactive; negative | [2] inactive; negative | [3] inactive; negative | [4] inactive; negative | Test System: AMES SALMONELLA TYPHIMURIUM, Strain/Indicator: TA100, Metabolic Activation: NONE, Method: FLUCTUATION TEST inactive; negative | [5] inactive; negative | [6] inactive; negative | [7] inactive; negative | [8] inactive; negative | [9] inactive; negative | [10] inactive; negative | [11] inactive; negative | [12] inactive; negative

[Cl][Ce]([Cl])[Cl]
inactive: Test System: E. COLI, Strain/Indicator: WP2 UVRA, Metabolic Activation: NONE, Method: SPOT TEST inactive; negative

C=Cc1ccc(S(=O)(=O)O)cc1
inactive: Test System: Ames Salmonella typhimurium, Strain/Indicator: TA98, Metabolic Activation: None, Method: Preincubation inactive; negative | Test System: Ames Salmonella typhimurium, Strain/Indicator: TA98, Metabolic Activation: Rat, Liver, S-9, Phenobarbital and 5,6-benzoflavone, Method: Preincubation inactive; negative | Test System: Ames Salmonella typhimurium, Strain/Indicator: TA100, Metabolic Activation: None, Method: Preincubation inactive; negative | Test System: Ames Salmonella typhimurium, Strain/Indicator: TA100, Metabolic Activation: Rat, Liver, S-9, Phenobarbital and 5,6-benzoflavone, Method: Preincubation inactive; negative | Test System: Ames Salmonella typhimurium, Strain/Indicator: TA1535, Metabolic Activation: None, Method: Preincubation inactive; negative | Test System: Ames Salmonella typhimurium, Strain/Indicator: TA1535, Metabolic Activation: Rat, Liver, S-9, Phenobarbital and 5,6-benzoflavone, Method: Preincubation inactive; negative | Test System: Ames Salmonella typhimurium, Strain/Indicator: TA1537, Metabolic Activation: None, Method: Preincubation inactive; negative | Test System: Ames Salmonella typhimurium, Strain/Indicator: TA1537, Metabolic Activation: Rat, Liver, S-9, Phenobarbital and 5,6-benzoflavone, Method: Preincubation inactive; negative | Test System: E. coli, Strain/Indicator: WP2uvrA/pKM101, Metabolic Activation: None, Method: Preincubation inactive; negative | Test System: E. coli, Strain/Indicator: WP2uvrA/pKM101, Metabolic Activation: Rat, Liver, S-9, Phenobarbital and 5,6-benzoflavone, Method: Preincubation inactive; negative

Clc1ccccc1
inactive: End Point: IN VITRO CHROMOSOMAL ABERRATIONS, Test System: CHO CELLS, Metabolic Activation: NONE inactive; negative | End Point: IN VITRO CHROMOSOMAL ABERRATIONS, Test System: CHO CELLS, Metabolic Activation: RAT, LIVER, S-9, AROCLOR 1254 inactive; negative; previous trial yielded a positive response at 150 ug/ml but no dose-re | Test System: AMES SALMONELLA TYPHIMURIUM, Strain/Indicator: TA98, Metabolic Activation: HAMSTER, LIVER, S-9, AROCLOR 1254, Method: PREINCUBATION inactive; negative | [2] inactive; negative | [14] inactive; negative | Test System: AMES SALMONELLA TYPHIMURIUM, Strain/Indicator: TA100, Metabolic Activation: HAMSTER, LIVER, S-9, AROCLOR 1254, Method: PREINCUBATION inactive; negative | [5] inactive; negative | [16] inactive; negative | Test System: AMES SALMONELLA TYPHIMURIUM, Strain/Indicator: TA1535, Metabolic Activation: HAMSTER, LIVER, S-9, AROCLOR 1254, Method: PREINCUBATION inactive; negative | [8] inactive; negative | Test System: AMES SALMONELLA TYPHIMURIUM, Strain/Indicator: TA1535, Metabolic Activation: RAT, LIVER, S-9, AROCLOR 1254, Method: PREINCUBATION inactive; negative | Test System: AMES SALMONELLA TYPHIMURIUM, Strain/Indicator: TA1537, Metabolic Activation: HAMSTER, LIVER, S-9, AROCLOR 1254, Method: PREINCUBATION inactive; negative | [11] inactive; negative | Test System: AMES SALMONELLA TYPHIMURIUM, Strain/Indicator: TA1537, Metabolic Activation: RAT, LIVER, S-9, AROCLOR 1254, Method: PREINCUBATION inactive; negative

Cc1ccc2c(c1)c(=NC(=O)c1ccc([N+](=O)[O-])cc1)sn2C(=O)c1ccc([N+](=O)[O-])cc1
active: [18] active; positive

OCc1ccc2nc3c(ccc4ccccc43)c(CO)c2c1
active: [17] active; positive

CC(C)(C)c1cc(-c2ccccc2)ccc1NO
active: [13] active; positive | Test System: AMES SALMONELLA TYPHIMURIUM, Strain/Indicator: TA98, Metabolic Activation: S-9, Method: STANDARD PLATE active; positive | [15] active; positive | [18] active; positive

O=c1c2ccc(OCC3CO3)cc2sn1CC1CO1 (stereo unspecified)
active: [15] active; positive

Reference: PubChem BioAssay AID1259407 (Chemical Carcinogenesis Research Information System (CCRIS), 2018)
